These results are taken from article PMC9821907, “Synthesis and Antiprotozoal Activity of Azabicyclo-Nonane Pyrimidine Hybrids” (Molecules, 2022).

By IC50 is commonly meant the midpoint of a concentration-inhibition curve.

SMILES strings stand for the structures. Like-named read-outs stand apart in the source and are kept apart here.

For one series, the system named is P. falciparum NF54. Description: In vitro microplate 3H-hypoxanthine incorporation assay against P. falciparum NF54. It is filed as cell-based. Particulars: Plasmodium falciparum. As to the method:
(§1) Compounds were tested for their activities against Plasmodium falciparum NF54 (sensitive to chloroquine) and Trypanosoma brucei rhodesiense STIB900, via serial dilution assays. Furthermore, selected compounds were tested against the K1 strain of Plasmodium falciparum (resistant against chloroquine, sulfadoxine and pyrimethamine). Their cytotoxicity was determined with rat skeletal myoblasts (L-6 cells).
(§2) In vitro activity against erythrocytic stages of P. falciparum was determined using a ^3H-hypoxanthine incorporation assay using the drug sensitive NF54 strain [27] or the chloroquine- and pyrimethamine-resistant K1 strain [28]. Compounds were dissolved in DMSO at 10 mg/mL and further diluted in medium before being added to parasite cultures incubated in RPMI 1640 medium without hypoxanthine, supplemented with HEPES (5.94 g/L), NaHCO3 (2.1 g/L), neomycin (100 U/mL), Albumax® (5 g/L) and washed human red cells A+ at 2.5% haematocrit (0.3% parasitaemia). Serial drug dilutions of eleven 3-fold dilution steps covering a range from 100 to 0.002 μg/mL were prepared. The 96-well plates were incubated in a humidified atmosphere at 37 °C; 4% CO2, 3% O2, 93% N2. After 48 h, 0.05 mL of ^3H-hypoxanthine (= 0.5 μCi) was added to each well of the plate. The plates were incubated for a further 24 h under the same conditions. The plates were then harvested with a Betaplate™ cell harvester (Wallac, Zurich, Switzerland), and the red blood cells transferred onto a glass fibre filter then washed with distilled water. The dried filters were inserted into a plastic foil with 10 mL of scintillation fluid, and counted in a Betaplate™ liquid scintillation counter (Wallac, Zurich, Switzerland). IC50 values were calculated from sigmoidal inhibition curves by linear regression using Microsoft Excel. Chloroquine (Sigma C6628) was used as control.

A further series deals with P. falciparum K1. Put plainly: In vitro microplate 3H-hypoxanthine incorporation assay against P. falciparum K1. In kind it is cell-based, Plasmodium falciparum. The settings on record: Plasmodium falciparum. The method, then: as §1, §2
Series [1] has as its system T. brucei rhodesiense STIB900. Put plainly: In vitro microplate resazurin assay against T. brucei rhodesiense. The settings on record: Trypanosoma brucei, read-out: T. brucei rhodesiense STIB900 IC50. It is filed as cell-based. As to the method:
as §1
Minimum essential medium (50 µL) supplemented with 25 mM HEPES, 1g/L additional glucose, 1% MEM non-essential amino acids (100×), 0.2 mM 2-mercaptoethanol, 1mM Na-pyruvate and 15% heat-inactivated horse serum was added to each well of a 96-well microtiter plate. Serial drug dilutions of eleven 3-fold dilution steps covering a range from 100 to 0.002 μg/mL were prepared. Then 4 × 10^3 bloodstream forms of T. b. rhodesiense STIB 900 in 50 µL was added to each well and the plate incubated at 37 °C under a 5 % CO2 atmosphere for 70 h. Next, 10 µL resazurin solution (resazurin, 12.5 mg in 100 mL double-distilled water) was added to each well and incubation continued for a further 2–4 h. Then the plates were read with a Spectramax Gemini XS microplate fluorometer (Molecular Devices Cooperation, Sunnyvale, CA, USA) using an excitation wave length of 536 nm and an emission wave length of 588 nm. Data were analyzed with the graphic programme Softmax Pro (Molecular Devices Cooperation, Sunnyvale, CA, USA), which calculated IC50 values by linear regression and 4-parameter logistic regression from the sigmoidal dose inhibition curves. Melarsoprol (Arsobal Sanofi-Aventis, received from WHO) was used as control.
For orientation: Resazurin is reduced to fluorescent resorufin, in cell work by metabolically active cells.

The next series in a line: in vitro. The settings on record: rat. The method, then:
as §1
Assays were performed in 96-well microtiter plates, each well containing 0.1 mL of RPMI 1640 medium supplemented with 1% L-glutamine (200 mM) and 10% fetal bovine serum, and 4000 L-6 cells (a primary cell line derived from rat skeletal myoblasts, ATCC CRL-1458™). Serial drug dilutions of eleven 3-fold dilution steps covering a range from 100 to 0.002 μg/mL were prepared. After 70 h of incubation the plates were inspected under an inverted microscope to assure growth of the controls and sterile conditions. Then, 0.01 mL resazurin solution (resazurin, 12.5 mg in 100 mL double-distilled water) was added to each well and the plates incubated for another 2 h. The plates were read with a Spectramax Gemini XS microplate fluorometer (Molecular Devices Cooperation, Sunnyvale, CA, USA) using an excitation wave length of 536 nm and an emission wave length of 588 nm. The IC50 values were calculated by linear regression from the sigmoidal dose inhibition curves using SoftmaxPro software (Molecular Devices Cooperation, Sunnyvale, CA, USA). Podophyllotoxin (Sigma P4405) was used as control.

Setting [2] is: NF54 strain, sensitive to chloroquine and pyrimethamine, average of four determinations, read-out: P. falciparum NF54 IC50.
[3] abbreviates: K1, K1 strain, resistant to chloroquine, sulfadoxine and pyrimethamine, average of four determinations, read-out: P. falciparum K1 IC50.
Setting [4] is: bloodstream forms, average of four determinations.

As for `Cc1cc(N2CC3C(c4ccccc4)CC(N4CCCC4)(CC3c3ccccc3)C2)nc(N2CCCC2)n1` (racemic) [Compound 20, rac-(7R,8R)-3-[6-methyl-2-(pyrrolidin-1-yl)pyrimidin-4-yl]-6,9-diphenyl-1-(pyrrolidin-1-yl)-3-azabicyclo[3.2.2]nonane], the IC50 with P. falciparum NF54 (setting [2]) was found to be 0.087 ± 0.059 µM; in the series on P. falciparum K1 (setting [3]) it was 0.087 ± 0.047 µM; in series [1] (setting [4]), 0.764 ± 0.335 µM. The compound also yielded a concentration for half-maximal inhibition (IC50) at 72 h in the series “in vitro” of 4.16 ± 0.039 µM.

For the compound `Nc1cc(N2CC3C(c4ccccc4)CC(N4CCCCC4)(CC3c3ccccc3)C2)nc(N)n1` (racemic) [Compound 11], the IC50 with P. falciparum NF54 (setting [2]) is 0.023 ± 0.001 µM; with P. falciparum K1 (setting [3]), 0.087 ± 0.002 µM; in series [1] (setting [4]) it was 0.201 ± 0.039 µM. The same compound showed an IC50 at 72 h in the series “in vitro” of 4.33 ± 0.235 µM.

For the compound `Cc1cc(N2CC3C(c4ccccc4)CC(N4CCCCC4)(CC3c3ccccc3)C2)nc(N2CCCCC2)n1` (racemic) [Compound 23, rac-(7R,8R)-3-[6-methyl-2-(piperidin-1-yl)pyrimidin-4-yl]-6,9-diphenyl-1-(piperidin-1-yl)-3-azabicyclo[3.2.2]nonane], the IC50 in the series with P. falciparum NF54 (setting [2]) was found to be 0.607 ± 0.01 µM; in the series with P. falciparum K1 (setting [3]), 0.57 ± 0.012 µM; in series [1] (setting [4]), 3.38 ± 0.009 µM. In addition, the IC50 at 72 h in the series “in vitro” came to 16 ± 1.24 µM.

Consider `Cc1cc(N2CCC3(N4CCCCC4)C[C@H](c4ccccc4)C2[C@@H](c2ccccc2)C3)nc(N2CCCC2)n1` (racemic) [Compound 17, rac-(7R,8R)-2-[6-methyl-2-(pyrrolidin-1-yl)pyrimidin-4-yl]-7,8-diphenyl-5-(piperidin-1-yl)-2-azabicyclo[3.2.2]nonane], for which the IC50 in the series on P. falciparum NF54 (setting [2]) was determined as 0.617 ± 0.008 µM; in series [1] (setting [4]) it was 0.575 ± 0.033 µM. In the series “in vitro”, it took 23.2 ± 9.93 µM to reach half-maximal inhibition (IC50 at 72 h).

As for `Cc1cc(N2CCC3(N4CCCCC4)C[C@H](c4ccccc4)C2[C@@H](c2ccccc2)C3)nc(N2CCCCC2)n1` (racemic) [Compound 21, rac-(7R,8R)-2-[6-methyl-2-(piperidin-1-yl)pyrimidin-4-yl]-7,8-diphenyl-5-(piperidin-1-yl)-2-azabicyclo[3.2.2]nonane], the IC50 was determined as 4.7 ± 1.19 µM with P. falciparum NF54 (setting [2]) and 8.72 ± 4.2 µM in series [1] (setting [4]). Besides, in the series “in vitro”, the IC50 at 72 h stood at 104 ± 27 µM.

In the case of `CCN(CC)CCCC(C)Nc1ccnc2cc(Cl)ccc12` (centres unmarked) [CQ, chloroquine, reference compound], the half-maximal inhibitory concentration (IC50) in the series with P. falciparum NF54 (NF54, read-out: P. falciparum NF54 IC50) was 0.0039 µM; with P. falciparum K1 (K1, read-out: P. falciparum K1 IC50) it was 0.163 µM. In “in vitro”, this compound came in with an IC50 at 72 h of 90.9 µM.

With `Cc1cc(N2CC3C(c4ccccc4)CC(N4CCCC4)(CC3c3ccccc3)C2)nc(N)n1` (racemic) [Compound 8], the half-inhibitory concentration (IC50) in the series on P. falciparum NF54 (setting [2]) was found to be 0.062 ± 0.001 µM; in series [1] (setting [4]), 0.322 ± 0.151 µM. In addition, half-maximal inhibition in the series “in vitro” (IC50 at 72 h) was put at 4.48 ± 1.44 µM.

On to `Nc1nc(N)nc(Nc2ccc([As]3SCC(CO)S3)cc2)n1` (centres unmarked) [MEL, melarsoprol, reference compound], for which, in series [1], the IC50 was 0.01 µM. In the series “in vitro”, this compound had an IC50 at 72 h of 7.78 µM.

As to `Cc1cc(N2CC3C(c4ccccc4)CC(N4CCCC4)(CC3c3ccccc3)C2)nc(N2CCCCC2)n1` (racemic) [Compound 24, rac-(7R,8R)-3-[6-methyl-2-(piperidin-1-yl)pyrimidin-4-yl]-6,9-diphenyl-1-(pyrrolidin-1-yl)-3-azabicyclo[3.2.2]nonane], the IC50 in the series with P. falciparum NF54 (setting [2]) was found to be 3.79 ± 0.163 µM; in series [1] (setting [4]), 1.45 ± 0.116 µM. Also, in the series “in vitro”, the IC50 at 72 h was found to be 61.8 ± 27.9 µM.

For `Cc1cc(N2CCC3(N4CCCC4)C[C@H](c4ccccc4)C2[C@@H](c2ccccc2)C3)nc(N2CCCCC2)n1` (racemic) [Compound 22, rac-(7R,8R)-2-[6-methyl-2-(piperidin-1-yl)pyrimidin-4-yl]-7,8-diphenyl-5-(pyrrolidin-1-yl)-2-azabicyclo[3.2.2]nonane], the IC50 in the series on P. falciparum NF54 (setting [2]) is 0.406 ± 0.015 µM; in series [1] (setting [4]), 0.107 ± 0.049 µM. This compound also returned a half-inhibitory concentration (IC50) at 72 h in “in vitro” of 6.73 ± 3.08 µM.

Turning to `Cc1cc(N2CCC3(N4CCCC4)CC(c4ccccc4)C2C(c2ccccc2)C3)nc(N)n1` (racemic) [Compound 6, rac-4-[(7R,8R)-7,8-diphenyl-5-(pyrrolidin-1-yl)-2-azabicyclo[3.2.2]nonan-2-yl]-6-methylpyrimidin-2-amine], the concentration for half-maximal inhibition (IC50) was found to be 0.088 ± 0.057 µM with P. falciparum NF54 (setting [2]) and 0.161 µM in series [1] (setting [4]). This compound also had a 50% inhibitory concentration (IC50) at 72 h in the series “in vitro” of 12.5 ± 3.31 µM.
